≈ marks a conversion by molar mass, not a printed value.

One assay has as its system methicillin-resistant Staphylococcus aureus (MRSA). The assay can be described thus: Planktonic antibacterial broth microdilution assay (Test C), MIC vs MRSA. The conditions noted are these: broth microdilution, 37° C., growth read after 24 to 48 hours at OD 600 nm, read-out: MIC vs MRSA. The class given is cell-based. The method, then: (§1) Test C. Planktonic (Free-Living) Antibacterial Assay.
(§2) Planktonic antibacterial activity can be determined using a broth microdilution assay in which log-phase bacteria are grown at 37° C. in appropriate medium containing two-fold serial dilutions of a compound to yield a final concentration ranging from 256 to 0.1 μg/ml. For determination of minimal inhibitory concentration (MIC) values, bacterial growth is monitored after 24 to 48 hours by measuring optical density at 600 nm. […] The minimal inhibitory concentration against methicillin-sensitive Staphylococcus aureus (MSSA) for each of the following representative compounds of the invention was determined to be less than 32 μg/ml.
Representative compounds of the invention were also tested against methicillin-resistant Staphylococcus aureus, vancomycin-resistant Enterococcus faecalis and Enterococcus faecium (VRE), vancomycin-sensitive Enterococcus faecalis and Enterococcus faecium (VSE).
(Dilution methods test growth across graded concentrations, often in twofold steps.)
Take `COc1cc(-c2cc3ccccc3[n+](C)c2)cc(-c2ccc(C(C)(C)C)cc2)c1OC.[I-]` [Example 11]: the MIC is at most 8 mg/L.

The next assay relates to methicillin-sensitive Staphylococcus aureus (MSSA). The assay can be described thus: Planktonic antibacterial broth microdilution assay (Test C), MIC vs MSSA. The class given is cell-based. The conditions noted are these: 37° C., growth read after 24 to 48 hours at OD 600 nm. As for the experimental part: as §1, §2
The molecule `C[n+]1cccc2ccccc21.[I-]` [Comparative Example A, reference compound] registered an MIC above 64 mg/L.
On the same count and under the same terms, the value for `C[n+]1c(-c2ccccc2)ccc2ccccc21.[I-]` [Comparative Example B, reference compound] was above 64 mg/L.
The molecule `COc1cc(-c2cc3ccccc3[n+](C)c2)cc(-c2ccc(-c3ccccc3)cc2)c1OC.[I-]` [Example 2] displayed an MIC of at most 8 mg/L.
Same read-out and setting: the result for `COc1cc(-c2cc3ccccc3[n+](C)c2)cc(-c2ccc(F)cc2)c1OC.[I-]` [Example 4] reads 16 mg/L; that for `COc1cc(-c2cc3ccccc3[n+](C)c2)cc(-c2cccc(-c3ccc(F)cc3)c2)c1OC.[I-]` [Example 6], at most 8 mg/L; that for `COc1cc(-c2cc3ccccc3[n+](C)c2)cc(-c2cc(-c3ccc(F)cc3)cc(-c3ccc(F)cc3)c2)c1OC.[I-]` [Example 8], at most 8 mg/L.
The molecule `COc1cc(-c2cc3ccccc3[n+](C)c2)cc(-c2ccc(C(C)(C)C)cc2)c1OC.[I-]` [Example 11] showed an MIC of at most 8 mg/L.
Still for that read-out and setting: the result for `COc1cc2cc(-c3cc(OC)c(OC)c(-c4ccc(-c5ccccc5)cc4)c3)c[n+](C)c2cc1OC.[I-]` [Example 13] reads at most 8 mg/L; that for `CCC[n+]1cc(-c2cc(OC)c(OC)c(-c3ccc(-c4ccccc4)cc3)c2)cc2cc(OC)c(OC)cc21.[I-]` [Example 14], at most 8 mg/L; that for `COc1cc2cc(-c3cc(OC)c(OC)c(-c4ccc(C(C)(C)C)cc4)c3)c[n+](C)c2cc1OC.[I-]` [Example 16], at most 8 mg/L.
On the same count and under the same terms, the result for `COc1cc2cc(-c3cc(OC)c(OC)c(-c4ccc(C5CCCCC5)cc4)c3)c[n+](C)c2cc1OC.[I-]` [Example 21] reads at most 8 mg/L; that for `CCC[n+]1cc(-c2cc(OC)c(OC)c(-c3ccc(C4CCCCC4)cc3)c2)cc2cc(OC)c(OC)cc21.[I-]` [Example 22], at most 8 mg/L.
Same read-out and setting: the result for `COc1cc(-c2cc3cc4c(cc3[n+](C(C)C)c2)OCO4)cc(-c2ccc(-c3ccccc3)cc2)c1OC.[I-]` [Example 25] reads at most 8 mg/L; that for `COc1cc(-c2cc3cc4c(cc3[n+](C)c2)OCO4)cc(-c2ccc(C(C)(C)C)cc2)c1OC.[I-]` [Example 26a], at most 8 mg/L.
The molecule `COc1cc(-c2cc3ccc(OC)c(OC)c3[n+](C)c2)cc(-c2cccc(C(C)(C)C)c2)c1OC.[I-]` [Example 28] gave an MIC of at most 8 mg/L.
Same read-out and setting: the value for `COc1cc(-c2cc3ccc(OC)c(OC)c3[n+](C)c2)cc(-c2ccc(C(C)(C)C)cc2)c1OC.[I-]` [Example 30] was at most 8 mg/L.
On the same count and under the same terms, the value for `COc1cc(-c2cc3ccccc3nc2CN)cc(-c2ccc(C(C)(C)C)cc2)c1OC` [Example 31] was at most 8 mg/L; that for `C[n+]1cc(-c2cc(F)c(F)c(-c3ccc(-c4ccccc4)cc3)c2)cc2ccccc21.[I-]` [Example 33] was at most 8 mg/L; that for `CC(C)(C)c1ccc(-c2ccc(CCN)c3ccccc23)cc1` [Example 38, 2-(4-(4-(t-butyl)phenyl)naphthalen-1-yl)ethanamine] was at most 8 mg/L.
Still for that read-out and setting: the value for `CC(C)(C)c1ccc(-c2ccc(CCN=C(N)N)c3ccccc23)cc1` [Example 39] was at most 8 mg/L; that for `CC(C)(C)c1ccc(-c2ccc(CN=C(N)N)c3ccccc23)cc1` [Example 40] was at most 8 mg/L.
The molecule `COc1cc(C(F)(F)F)ccc1-c1cccc2c(CN=C(N)N)cccc12` [Example 43] showed an MIC of at most 8 mg/L.
The same measure, in the same setting: the result for `COc1cc(C(F)(F)F)ccc1-c1cccc2c(CCN)cccc12` [Example 44, 2-(5-(2-Methoxy-4-(trifluoromethyl)phenyl)naphthalen-1-yl)ethanamine] reads at most 8 mg/L; that for `COc1cc(C(F)(F)F)ccc1-c1cccc2c(CCN=C(N)N)cccc12` [Example 45], at most 8 mg/L; that for `NC(N)=NCc1cccc2c(-c3ccc(C4CC4)cc3)cccc12` [Example 46], at most 8 mg/L.
On the same count and under the same terms, the result for `Cc1cc(C(F)(F)F)ccc1-c1cccc2c(CN=C(N)N)cccc12` [Example 47] reads at most 8 mg/L.
On the same count and under the same terms, the result for `COc1cc2c(-c3ccc(-c4ccccc4)cc3)ccc([N+](C)(C)C)c2cc1OC.[I-]` [Example 50] reads at most 8 mg/L.
For the molecule `N=C(N)NCc1cccc2c(-c3ccc(Br)cc3)cccc12` [Example 51, 1-((5-(4-bromophenyl)naphthalen-1-yl)methyl)guanidine], the MIC was at most 8 mg/L.
On the same count and under the same terms, the result for `N=C(N)NCc1cccc2c(-c3ccc(Cl)cc3)cccc12` [Example 52] reads at most 8 mg/L; that for `N=C(N)NCc1cccc2c(-c3ccc(C(F)(F)F)cc3)cccc12` [Example 53], at most 8 mg/L; that for `N=C(N)NCCc1cccc2c(-c3ccc(C(F)(F)F)cc3)cccc12` [Example 55], at most 8 mg/L.
`COc1ccc(-c2ccc3c(-c4ccc(C(C)(C)C)cc4)cccc3c2CNC(=N)N)c(OC)c1OC` [Example 58]: the MIC is at most 8 mg/L.
The molecule `CN(C)Cc1ccccc1-c1ccc2c(-c3ccc(C(C)(C)C)cc3)cccc2c1` [Example 60, (2-(1-(4-t-butylphenyl)naphthalen-6-yl)phenyl)-N,N-dimethylmethanamine] gave an MIC of 32 mg/L (≈ 81.3 µM).
Same read-out and setting: the value for `CC(C)(C)c1ccc(-c2cccc3cc(-c4cccc([N+](C)(C)C)c4)ccc23)cc1.[I-]` [Example 65] was at most 8 mg/L.
Same read-out and setting: the result for `C[N+](C)(C)c1cccc(-c2ccc3c(-c4cccc(-c5ccccc5)c4)cccc3c2)c1.[I-]` [Example 67] reads at most 8 mg/L.
As for `C[N+](C)(C)c1ccc(-c2ccc3c(-c4cccc(-c5ccccc5)c4)cccc3c2)cc1.[I-]` [Example 69], the MIC is at most 8 mg/L.
Same read-out and setting: the result for `CN(C)Cc1cccc(-c2ccc3c(-c4cccc(-c5ccccc5)c4)cccc3c2)c1` [Example 71] reads at most 8 mg/L.
Same read-out and setting: the result for `C[N+](C)(C)Cc1cccc(-c2ccc3c(-c4cccc(-c5ccccc5)c4)cccc3c2)c1.[I-]` [Example 72] reads at most 8 mg/L; that for `C[N+](C)(C)c1cccc(-c2ccc3c(-c4ccc(F)cc4)cccc3c2)c1.[I-]` [Example 74], at most 8 mg/L.
Same read-out and setting: the value for `C[N+](C)(C)c1ccc(-c2ccc3c(-c4ccc(F)cc4)cccc3c2)cc1.[I-]` [Example 76] was at most 8 mg/L.
The molecule `CC(C)(C)c1ccc(-c2cccc(-c3cccc4cc(-c5cccc([N+](C)(C)C)c5)ccc34)c2)cc1.[I-]` [Example 78] gave an MIC of at most 8 mg/L.
On the same count and under the same terms, the value for `C[N+](C)(C)c1cccc(-c2ccc3c(-c4cccc(-c5ccc(C(F)(F)F)cc5)c4)cccc3c2)c1.[I-]` [Example 80] was at most 8 mg/L; that for `C[N+](C)(C)c1cccc(-c2ccc3c(-c4cc(-c5ccc(F)cc5)cc(-c5ccc(F)cc5)c4)cccc3c2)c1.[I-]` [Example 82] was at most 8 mg/L.
The molecule `COC(=O)c1ccc(-c2ccc3c(-c4ccc(C(C)(C)C)cc4)cccc3c2)c(C[N+](C)(C)C)c1.[I-]` [Example 84] came in with an MIC of at most 8 mg/L.
Same read-out and setting: the value for `CN(C)Cc1cc(C(=O)O)ccc1-c1ccc2c(-c3ccc(C(C)(C)C)cc3)cccc2c1.Cl` [Example 85] was at most 8 mg/L; that for `CNCc1cc(C(=O)OC)ccc1-c1ccc2c(-c3ccc(C(C)(C)C)cc3)cccc2c1` [Example 86, methyl 4-(1-(4-t-butylphenyl)naphthalen-6-yl)-3-((methylamino)methyl)benzoate] was at most 8 mg/L; that for `CNCc1cc(C(=O)O)ccc1-c1ccc2c(-c3ccc(C(C)(C)C)cc3)cccc2c1.Cl` [Example 87] was at most 8 mg/L.
In turn, `CC(C)(C)c1ccc(-c2cccc3cc(-c4ccc(C(=O)O)cc4CN)ccc23)cc1.Cl` [Example 88] returned an MIC above 64 mg/L.
Same read-out and setting: the value for `COC(=O)c1ccc(-c2ccc3c(-c4ccc(C(C)(C)C)cc4)cccc3c2)c(CN)c1` [Example 89, methyl 4-(1-(4-t-butylphenyl)naphthalen-6-yl)-3-(aminomethyl)benzoate] was at most 8 mg/L.
Consider `C[N+](C)(C)c1cccc(-c2ccc3c(-c4ccc(-c5ccccc5)cc4)cccc3c2)c1.[I-]` [Example 93], for which the MIC is at most 8 mg/L.
Still for that read-out and setting: the value for `C[N+](C)(C)c1ccc(-c2ccc3c(-c4ccc(-c5ccccc5)cc4)cccc3c2)cc1.[I-]` [Example 95] was at most 8 mg/L.
On the same count and under the same terms, the result for `C[N+](C)(C)c1cccc(-c2ccc3c(-c4ccc(C(F)(F)F)cc4)cccc3c2)c1.[I-]` [Example 97] reads at most 8 mg/L; that for `CC(C)(C)c1ccc(-c2cccc3cc(-c4ccc([N+](C)(C)C)cc4)ccc23)cc1.[I-]` [Example 100], at most 8 mg/L.
Still for that read-out and setting: the result for `COC(=O)c1ccc(-c2ccc3c(-c4ccc(C(C)(C)C)cc4)cccc3c2)c(CNC(=N)N)c1` [Example 101] reads at most 8 mg/L.
With `COc1ccc(CNC(=N)N)c(-c2ccc3c(-c4ccc(C(C)(C)C)cc4)cccc3c2)c1OC` [Example 102], the MIC is at most 8 mg/L.
Same read-out and setting: the value for `COc1cc(CC(=N)N)c(-c2ccc3c(-c4ccc(C(C)(C)C)cc4)cccc3c2)cc1OC` [Example 103] was at most 8 mg/L.
Still for that read-out and setting: the result for `N=C(N)NCc1ccccc1-c1ccc2c(-c3cccc(-c4ccccc4)c3)cccc2c1` [Example 105] reads at most 8 mg/L; that for `COc1c(CCN)ccc(-c2ccc3c(-c4ccc(C(C)(C)C)cc4)cccc3c2)c1OC.Cl` [Example 106], at most 8 mg/L; that for `C[n+]1cc(-c2ccc(-c3ccccc3)cc2)c2ccccc2c1.[I-]` [Example 107], at most 8 mg/L.
`C[n+]1cccc2cccc(-c3ccc(-c4ccccc4)cc3)c21.[I-]` [Example 118] returned an MIC of 16 mg/L.
`C[n+]1cccc2c(-c3ccc(-c4ccccc4)cc3)cccc21.[I-]` [Example 122] registered a minimum inhibitory concentration (MIC) of at most 8 mg/L.

Broadly, the MIC is the least concentration at which growth counts as inhibited.

For the origin of these results see US9102617B2, “Antimicrobial agents” (Rutgers, The State University of New Jersey, priority 2010, dated 2015).
